From PubChem BioAssay AID1996
In brackets after ≈: the same amount, converted by molar mass.

Conditions: buffer; pH 7.4; 200.0 µM
For `Cc1ccc2[nH]c(C(=O)N3CCN(c4cccc(Cl)c4)CC3)cc2c1`, the solubility kinetic was under 0.3 µg/mL. `COc1ccc(CNC(=S)Nc2ccccc2Cl)cc1` gave a solubility kinetic of 12 µg/mL (≈ 39.1 µM). For `Cc1cc(C)c(C#N)c(OCc2ccc(Cl)nc2)n1`, the solubility kinetic was 8.5 µg/mL (≈ 31.1 µM). For `O=C(COc1ccc2c(-c3ccccc3)cc(=O)oc2c1)NC(Cc1c[nH]c2ccccc12)C(=O)O` (stereo unspecified), the solubility kinetic was over 72.4 µg/mL. In the case of `Cc1cc([N+](=O)[O-])cc2c1NC(=O)C2(O)N1CCCC(C)C1` (stereo unspecified), the solubility kinetic is reported as 28.3 µg/mL (≈ 92.7 µM). Work on `Cc1noc(C(=O)Nc2ccc(C#N)cc2)c1Cl` yielded a solubility kinetic of 1.6 µg/mL (≈ 6.11 µM). For `CC1CN(S(=O)(=O)c2cc(C(=O)NC(C)c3cccnc3)ccc2Cl)CC(C)O1` (stereo unspecified), the solubility kinetic was over 65.7 µg/mL. `O=C(OCC(=O)c1ccc[nH]1)c1ccccc1` showed a solubility kinetic of 32.2 µg/mL (≈ 140 µM). Work on `COc1ccccc1C(=O)NCCC(=O)NC1CCCCCC1` yielded a solubility kinetic of over 47.8 µg/mL. `COc1ccc(C(=O)NC(=S)N(C)C2CCCCC2)cc1` gave a solubility kinetic of 5.5 µg/mL (≈ 17.9 µM). With `Cc1cc(C(=O)N(C)C2CCCCC2)no1` the solubility kinetic was over 33.3 µg/mL. Molecule `Cl.Fc1c(F)c(F)c(N2CCNCC2)c(F)c1F` has a solubility kinetic of over 43.3 µg/mL. For `O=C(NC12CC3CC(CC(C3)C1)C2)N1CCN(c2ccccc2)CC1`, the solubility kinetic was 12.7 µg/mL (≈ 37.4 µM). In the case of `O=C1CCC([N+](=O)[O-])C(c2ccc(C(F)(F)F)cc2)N1` (stereo unspecified), the solubility kinetic is reported as over 43.2 µg/mL. In the case of `O=C(Nc1ccccc1)OCCCc1ccccc1`, the solubility kinetic is reported as 9.7 µg/mL (≈ 38 µM). In the case of `CC(=O)CSc1ccc(-c2nc3cc(C)c(C)cc3[nH]2)cn1`, the solubility kinetic is reported as 3.9 µg/mL (≈ 12.5 µM). Work on `O=C(NCc1cccc(C(F)(F)F)c1)c1ccc(=O)[nH]c1` yielded a solubility kinetic of over 44.4 µg/mL. In the case of `COC(=O)c1ccccc1NC(=O)CN1CCC(C)CC1`, the solubility kinetic is reported as 30.8 µg/mL (≈ 106 µM). For `Fc1ccc(OCCOCCN2CCCC2)cc1`, the solubility kinetic was 28 µg/mL (≈ 111 µM). `CCn1cnc2cc(NCc3ccccc3Cl)ccc21` gave a solubility kinetic of over 42.9 µg/mL. `CSc1nc(N2CCOCC2)c2sccc2n1` showed a solubility kinetic of 38.6 µg/mL (≈ 144 µM). For `Cc1cc(C)cc(Nc2ncnc3nc[nH]c23)c1`, the solubility kinetic was 7.7 µg/mL (≈ 32.2 µM). `Cc1ccc2c(c1)c1c3n2CCN(CC#N)C3CCC1` (stereo unspecified) showed a solubility kinetic of 1.1 µg/mL (≈ 4.15 µM). Molecule `CCc1cc(SC#N)ccc1N` has a solubility kinetic of 20.7 µg/mL (≈ 116 µM). Work on `COc1cc(NC(=S)NCCO)c(OC)cc1Cl` yielded a solubility kinetic of over 43.6 µg/mL. For `COc1ccccc1NC(=O)CC(=O)c1ccccc1`, the solubility kinetic was over 40.4 µg/mL. `Cc1ccc(NC(=O)c2ccc(C(=O)c3ccccc3)cc2)nc1` gave a solubility kinetic of 5.1 µg/mL (≈ 16.1 µM). Molecule `Cc1ccc(S(=O)(=O)N(C)C)cc1NC(=O)C1CCC1` has a solubility kinetic of 39.7 µg/mL (≈ 134 µM). With `Cc1cc(OCC(=O)N(C)Cc2ccccc2)cc(C)c1Cl` the solubility kinetic was 8.3 µg/mL (≈ 26.1 µM). `O=C(NCCCN1CCCC1=O)c1cc(-c2ccc(F)cc2)nc2ccccc12` showed a solubility kinetic of over 58.7 µg/mL. `O=C(N/N=C/c1cccnc1)c1ccco1` showed a solubility kinetic of over 32.3 µg/mL. For `CN1C2=NCCN2C(=O)c2cc(Cl)ccc21`, the solubility kinetic was 30.9 µg/mL (≈ 131 µM). `O=S(=O)(Nc1ccccc1N1CCOCC1)c1ccccc1C(F)(F)F` showed a solubility kinetic of 7.3 µg/mL (≈ 18.9 µM). For `O=S(=O)(Nc1cccc2ccccc12)c1cccc2nonc12`, the solubility kinetic was over 48.8 µg/mL. `O=C(NCC1CCCCC1)c1cc2ccccc2cc1O` gave a solubility kinetic of 9.7 µg/mL (≈ 34.2 µM). `CCc1ccc(CNC(=O)CCc2cn(C)c3ccccc23)cc1` gave a solubility kinetic of 1.2 µg/mL (≈ 3.74 µM). `COCCNc1nc2nonc2nc1N(C)Cc1ccc(C)cc1` showed a solubility kinetic of over 49.3 µg/mL. `NC(=O)Cn1cc(C(=O)COc2ccccc2)c2ccccc21` gave a solubility kinetic of 14.6 µg/mL (≈ 47.4 µM). With `CC(NC(=O)COC(=O)c1ccc2c(c1)OCCO2)c1ccccc1` (stereo unspecified) the solubility kinetic was 11.4 µg/mL (≈ 33.4 µM). `Cc1ccc2cccc(OCCCOc3ccccc3CO)c2n1` showed a solubility kinetic of 38.1 µg/mL (≈ 118 µM). Molecule `Cc1ccnc2nc(C(=O)OCC(=O)Nc3ccc4c(c3)OCCO4)nn12` has a solubility kinetic of over 55.4 µg/mL. With `Cc1nc2ccccc2c(=O)n1-c1cc(F)ccc1F` the solubility kinetic was over 40.8 µg/mL. `O=c1[nH]c(=O)n(C2OC(CO)C(O)C2O)cc1Br` (stereo unspecified) showed a solubility kinetic of over 48.5 µg/mL. `O=C(O)C1C2C=CC(C2)C1C(=O)NCCCN1CCCC1=O` (stereo unspecified) gave a solubility kinetic of 44.2 µg/mL (≈ 144 µM). Work on `O=C1NCCN/C1=C\C(=O)c1ccc(Br)cc1` yielded a solubility kinetic of 17.8 µg/mL (≈ 60.3 µM). Molecule `Clc1ccccc1-c1ncc(-c2ccccc2)o1` has a solubility kinetic of under 0.5 µg/mL. Work on `O=C(O/N=C/c1ccc2c(c1)OCO2)c1ccc([N+](=O)[O-])cc1` yielded a solubility kinetic of 0.9 µg/mL (≈ 2.86 µM). `O=C(CN1CCCCC1)NC(=O)Nc1ccccc1F` gave a solubility kinetic of over 41.9 µg/mL. `NS(=O)(=O)c1ccc(NC(=O)CSc2ncccn2)cc1` showed a solubility kinetic of over 48.7 µg/mL. `CCOC(=O)c1[nH]cnc1C(=O)Nc1ccccc1OC` showed a solubility kinetic of 10.3 µg/mL (≈ 35.6 µM). Work on `CN(C)CCCNc1nc(-c2ccc(Cl)cc2)nc2ccccc12` yielded a solubility kinetic of 41.7 µg/mL (≈ 122 µM). With `N/C(=N\OC(=O)c1cccc(Br)c1)c1ccccn1` the solubility kinetic was 3 µg/mL (≈ 9.37 µM). `CSc1ncccc1C(=O)NCc1nnc2ccccn12` gave a solubility kinetic of over 44.9 µg/mL. For `COc1cccc(C(=O)NCc2ccco2)c1`, the solubility kinetic was over 34.7 µg/mL. In the case of `COc1ccccc1/C=C/C(=O)OCC(=O)Nc1ccc(Cl)cn1`, the solubility kinetic is reported as 1.1 µg/mL (≈ 3.17 µM). `CCCCN1C2=NC(c3ccccc3)CN2c2ccccc21.Cl` (stereo unspecified) showed a solubility kinetic of 44.1 µg/mL. `O=S(=O)(Nc1ccncc1)c1cc(Cl)c(Cl)cc1Cl` gave a solubility kinetic of 1.6 µg/mL (≈ 4.74 µM). `COc1cccc(CN(C)C(=O)CCC(=O)c2cc(Br)ccc2OC)c1` showed a solubility kinetic of 18.3 µg/mL (≈ 43.5 µM). Work on `CCOC(=O)c1ccccc1NC(=S)N1CCC(C(N)=O)CC1` yielded a solubility kinetic of 41.6 µg/mL (≈ 124 µM). With `COCCn1c(C)cc(/C=C2/SC(=O)N(C(C)C(=O)OC)C2=O)c1C` (stereo unspecified) the solubility kinetic was 36 µg/mL (≈ 98.2 µM). `Cc1ccccc1-c1nc(S(=O)(=O)c2ccccc2)c(NCCCN2CCOCC2)o1` gave a solubility kinetic of 44.9 µg/mL (≈ 102 µM).
